# Experimental data taken from ChEMBL document CHEMBL5444388, “Affinity Phenotypic Cellular Literature for EUbOPEN Chemogenomic Library” (2024).
# Experiments:
# [1] = target: Protein arginine N-methyltransferase 7 (Homo sapiens, UniProt Q9NVM4); test: Affinity Phenotypic Cellular interaction: (HSP70 monomethylation in C2C12 cells) EUB0000236b PRMT7; type: functional, cell-based; parameters: mode of action Negative control for SGC3027, recommended concentration 1 uM
# [2] = target: Serine/threonine-protein kinase pim-2 (Homo sapiens) (UniProt Q9P1W9); test: Affinity Phenotypic Cellular interaction: (Antiproliferative activity against AML cell lines (EOL-1, KG-1a, Kasumi-3, MV4-11, MOLM-16)) EUB0001547a PIM2; type: functional; parameters: recommended concentration 100 nM; conditions: Affinity Phenotypic Cellular Source Knowledge https://ashpublications.org/blood/article/123/6/905/32601/AZD1208-a-potent-and-selective-pan-Pim-kinase
# Sequence of Serine/threonine-protein kinase pim-2 (Homo sapiens) (Q9P1W9 whole entry, looked up): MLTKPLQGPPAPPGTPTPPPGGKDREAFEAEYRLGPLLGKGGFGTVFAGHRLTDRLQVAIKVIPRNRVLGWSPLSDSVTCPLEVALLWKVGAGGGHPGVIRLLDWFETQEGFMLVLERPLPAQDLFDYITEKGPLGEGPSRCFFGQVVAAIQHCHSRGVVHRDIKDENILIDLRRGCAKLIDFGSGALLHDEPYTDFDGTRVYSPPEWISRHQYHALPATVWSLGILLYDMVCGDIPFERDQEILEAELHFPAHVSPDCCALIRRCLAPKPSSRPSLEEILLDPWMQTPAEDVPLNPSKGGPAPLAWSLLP
# [3] = target: Serine/threonine-protein kinase pim-1 (Homo sapiens) (UniProt P11309); conditions: Affinity Phenotypic Cellular Source Knowledge https://ashpublications.org/blood/article/123/6/905/32601/AZD1208-a-potent-and-selective-pan-Pim-kinase
# Sequence of Serine/threonine-protein kinase pim-1 (Homo sapiens) (P11309 whole entry, looked up): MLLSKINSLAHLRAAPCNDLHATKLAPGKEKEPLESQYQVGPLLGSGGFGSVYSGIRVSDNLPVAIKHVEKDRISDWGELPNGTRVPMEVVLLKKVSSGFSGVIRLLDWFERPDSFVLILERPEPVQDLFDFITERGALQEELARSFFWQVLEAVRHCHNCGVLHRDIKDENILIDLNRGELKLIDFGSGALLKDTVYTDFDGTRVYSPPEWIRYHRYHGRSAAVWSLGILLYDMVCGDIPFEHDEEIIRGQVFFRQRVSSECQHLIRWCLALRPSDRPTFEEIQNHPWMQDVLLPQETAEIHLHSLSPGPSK
# [4] = target: Serine/threonine-protein kinase pim-3 (Homo sapiens) (UniProt Q86V86); conditions: Affinity Phenotypic Cellular Source Knowledge https://ashpublications.org/blood/article/123/6/905/32601/AZD1208-a-potent-and-selective-pan-Pim-kinase
# [5] = target: Serine/threonine-protein kinase mTOR (Homo sapiens) (UniProt P42345); test: Affinity Phenotypic Cellular interaction: (Anti-phosphorylation of AKT(S473) and S6K(T389) in insulin-like growth factor-I (IGF-I)-induced Rat1, the PIK3CA mutant MDA361, and PTEN-null U87MG cells) EUB0000607a MTOR; type: functional, cell-based; parameters: recommended concentration 1 uM; conditions: Affinity Phenotypic Cellular Source Knowledge https://pubmed.ncbi.nlm.nih.gov/20068177/
# [6] = target: Cyclin-dependent kinase 8 (Homo sapiens, UniProt P49336); test: Affinity Phenotypic Cellular interaction: (Inhibition of pSTAT S727 in NK-92 cells) EUB0000163b CDK8; type: functional, cell-based; parameters: mode of action Negative control for BI-1347, recommended concentration 100 nM
# Sequence of Cyclin-dependent kinase 8 (P49336 whole entry): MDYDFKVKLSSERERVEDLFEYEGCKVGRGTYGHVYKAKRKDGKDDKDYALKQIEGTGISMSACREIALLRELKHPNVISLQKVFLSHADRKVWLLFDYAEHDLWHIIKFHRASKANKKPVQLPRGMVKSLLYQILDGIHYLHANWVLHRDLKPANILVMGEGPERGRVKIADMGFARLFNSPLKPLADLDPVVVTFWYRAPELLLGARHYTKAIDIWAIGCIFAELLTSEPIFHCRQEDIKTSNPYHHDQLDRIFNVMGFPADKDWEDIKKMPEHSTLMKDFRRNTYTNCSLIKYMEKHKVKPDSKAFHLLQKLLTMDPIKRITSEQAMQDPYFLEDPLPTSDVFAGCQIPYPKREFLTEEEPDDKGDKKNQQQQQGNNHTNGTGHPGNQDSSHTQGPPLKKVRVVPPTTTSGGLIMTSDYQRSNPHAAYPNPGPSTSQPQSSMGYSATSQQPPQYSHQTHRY
# [7] = target: Protein-arginine deiminase type-4 (Homo sapiens, UniProt Q9UM07); type: functional
# Sequence of Protein-arginine deiminase type-4 (Q9UM07 whole entry): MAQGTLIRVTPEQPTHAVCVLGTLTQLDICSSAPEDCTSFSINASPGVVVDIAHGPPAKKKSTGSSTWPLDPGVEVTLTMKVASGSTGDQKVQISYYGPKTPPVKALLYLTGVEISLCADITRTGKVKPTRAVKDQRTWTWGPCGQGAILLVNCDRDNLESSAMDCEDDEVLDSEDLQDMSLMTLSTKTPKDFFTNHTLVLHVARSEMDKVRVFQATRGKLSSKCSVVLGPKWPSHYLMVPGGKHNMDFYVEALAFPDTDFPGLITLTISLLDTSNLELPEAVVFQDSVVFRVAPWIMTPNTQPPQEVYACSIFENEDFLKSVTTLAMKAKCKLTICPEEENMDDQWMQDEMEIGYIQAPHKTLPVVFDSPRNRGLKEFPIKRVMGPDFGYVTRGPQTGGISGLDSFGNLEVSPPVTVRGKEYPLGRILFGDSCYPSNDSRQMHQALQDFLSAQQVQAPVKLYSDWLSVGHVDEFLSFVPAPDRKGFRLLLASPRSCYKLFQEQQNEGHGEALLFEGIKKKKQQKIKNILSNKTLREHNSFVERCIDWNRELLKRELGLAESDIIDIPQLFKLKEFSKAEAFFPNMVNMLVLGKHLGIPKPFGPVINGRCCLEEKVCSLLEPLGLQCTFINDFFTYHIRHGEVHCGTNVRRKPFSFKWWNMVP
# [8] = target: 5'-AMP-activated protein kinase catalytic subunit alpha-1 (Homo sapiens, UniProt Q13131); test: Affinity Phenotypic Cellular interaction: (Cellular mechanistic pACC assay using IMR-32 neuroblastoma cells) EUB0000311b PRKAA1; type: functional, cell-based; parameters: mode of action Inhibitor, recommended concentration 100 nM
# Sequence of 5'-AMP-activated protein kinase catalytic subunit alpha-1 (Q13131 whole entry): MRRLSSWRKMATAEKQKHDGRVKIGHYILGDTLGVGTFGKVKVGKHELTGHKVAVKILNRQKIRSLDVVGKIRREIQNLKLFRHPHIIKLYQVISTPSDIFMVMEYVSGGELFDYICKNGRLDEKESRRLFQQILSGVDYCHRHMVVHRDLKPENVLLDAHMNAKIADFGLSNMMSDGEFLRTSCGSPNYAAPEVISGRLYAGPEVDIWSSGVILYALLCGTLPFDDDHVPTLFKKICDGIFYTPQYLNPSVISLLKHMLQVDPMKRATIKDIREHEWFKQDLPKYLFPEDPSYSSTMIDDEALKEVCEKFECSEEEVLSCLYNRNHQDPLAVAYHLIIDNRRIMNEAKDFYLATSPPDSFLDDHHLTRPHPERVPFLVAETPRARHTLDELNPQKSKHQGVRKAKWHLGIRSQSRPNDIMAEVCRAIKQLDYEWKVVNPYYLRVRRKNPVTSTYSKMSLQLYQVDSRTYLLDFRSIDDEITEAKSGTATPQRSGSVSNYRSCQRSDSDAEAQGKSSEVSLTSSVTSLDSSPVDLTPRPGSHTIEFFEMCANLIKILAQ
# Sequence of Protein arginine N-methyltransferase 7 (Q9NVM4 whole entry): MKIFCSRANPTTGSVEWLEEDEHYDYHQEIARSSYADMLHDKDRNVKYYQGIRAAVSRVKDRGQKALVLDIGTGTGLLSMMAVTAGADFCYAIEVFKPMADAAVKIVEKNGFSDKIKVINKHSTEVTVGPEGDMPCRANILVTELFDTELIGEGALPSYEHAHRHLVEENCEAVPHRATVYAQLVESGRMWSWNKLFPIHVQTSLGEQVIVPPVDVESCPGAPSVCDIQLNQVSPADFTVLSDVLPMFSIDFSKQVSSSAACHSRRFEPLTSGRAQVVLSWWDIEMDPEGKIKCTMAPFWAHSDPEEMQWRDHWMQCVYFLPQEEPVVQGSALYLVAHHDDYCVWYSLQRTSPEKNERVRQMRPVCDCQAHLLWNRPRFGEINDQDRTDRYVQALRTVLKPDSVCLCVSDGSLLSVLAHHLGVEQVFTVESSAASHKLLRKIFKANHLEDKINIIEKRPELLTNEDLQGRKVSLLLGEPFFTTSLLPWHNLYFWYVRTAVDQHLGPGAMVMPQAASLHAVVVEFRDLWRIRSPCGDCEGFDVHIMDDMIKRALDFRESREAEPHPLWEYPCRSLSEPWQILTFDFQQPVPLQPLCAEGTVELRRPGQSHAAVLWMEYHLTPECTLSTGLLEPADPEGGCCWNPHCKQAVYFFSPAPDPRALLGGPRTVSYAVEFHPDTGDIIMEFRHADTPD
compound,measurement,setting,value
CC1=C(C)C(=O)C(C(C)(C)CC(=O)N(CCCCSC[C@H]2O[C@@H](n3cnc4c(N)ncnc43)[C@@H]3OC(C)(C)O[C@@H]32)Cc2cccc(-c3ccc(Cl)cc3)c2)=C(C)C1=O,IC50,[1],> 40000 nM
N[C@@H]1CCCN(c2c(/C=C3\SC(=O)NC3=O)cccc2-c2ccccc2)C1,GI50,[2],< 1000 nM
same,GI50,[3],< 1000 nM
same,GI50,[4],< 1000 nM
CNC(=O)Nc1ccc(-c2nc(N3CC4CCC(C3)O4)c3cnn(C4CCC5(CC4)OCCO5)c3n2)cc1,ED50,[5],200 nM
CN(C)C(=O)Cn1cc(-c2ccc(-c3nnc4ccccn34)cc2)cn1,IC50,[6],> 10000 nM
CCn1c(-c2nc3cc(C(=O)N4CCCC(N)C4)ccc3n2C)cc2ccccc21 (stereo not drawn),IC50,[7],50 nM
CCc1ccccc1C(=O)Nc1n[nH]c2c(C)c(F)c(C3C(C#N)=C(C)N(C)C(C)=C3C#N)cc12 [BAY-3827],EC50,[8],150 nM
